Laboratory results reported in PubChem BioAssay AID248 (DTP/NCI, 2004).
Several values for one entry are separate records, joined by “and”; a condition that tells them apart may be missing. Equal entries are not always repeated. Inconclusive results and toxic doses are left out. Rule as the data show it: active = T/C of 150% or more; inactive = T/C below 125%.

Tested on: L1210 leukemia ip in BDF1 mice, survival T/C
Assay: NCI In Vivo Anticancer Drug Screen. Data for tumor model L1210 Leukemia (intraperitoneal) in B6D2F1 (BDF1) mice
Details: endpoint: mean survival time, higher = longer survival
How it was run: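 Each compound was tested against a transplantable tumor grown in mice. The endpoint was survival, with treated animals benchmarked against vehicle controls as a simple ratio.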

[1] = dose: 100.0 mg/kg/injection, schedule: Q01DX009 (ip), vehicle: Klucel (hydroxypropylcellulose) (HPC)
[2] = dose: 100.0 mg/kg/injection, schedule: Q04DX003 (ip), vehicle: Klucel (hydroxypropylcellulose) (HPC)
[3] = dose: 200.0 mg/kg/injection, schedule: Q01DX009 (ip), vehicle: Klucel (hydroxypropylcellulose) (HPC)
[4] = dose: 200.0 mg/kg/injection, schedule: Q04DX003 (ip), vehicle: Klucel (hydroxypropylcellulose) (HPC)
[5] = dose: 400.0 mg/kg/injection, schedule: Q01DX009 (ip), vehicle: Klucel (hydroxypropylcellulose) (HPC)
[6] = dose: 400.0 mg/kg/injection, schedule: Q04DX003 (ip), vehicle: Klucel (hydroxypropylcellulose) (HPC)
[7] = dose: 100.0 mg/kg/injection, schedule: Q04DX002 (ip), vehicle: Klucel (hydroxypropylcellulose) (HPC)
[8] = dose: 200.0 mg/kg/injection, schedule: Q04DX002 (ip), vehicle: Klucel (hydroxypropylcellulose) (HPC)
[9] = dose: 400.0 mg/kg/injection, schedule: Q04DX002 (ip), vehicle: Klucel (hydroxypropylcellulose) (HPC)
[10] = dose: 50.0 mg/kg/injection, schedule: Q01DX009 (ip), vehicle: Klucel (hydroxypropylcellulose) (HPC)
[11] = dose: 100.0 mg/kg/injection, schedule: Q01DX001 (ip), vehicle: saline
[12] = dose: 100.0 mg/kg/injection, schedule: Q01DX001 (ip), vehicle: carboxymethylcellulose (CMC)
[13] = dose: 200.0 mg/kg/injection, schedule: Q01DX001 (ip), vehicle: carboxymethylcellulose (CMC)
[14] = dose: 400.0 mg/kg/injection, schedule: Q01DX001 (ip), vehicle: carboxymethylcellulose (CMC)
[15] = dose: 12.5 mg/kg/injection, schedule: Q01DX009 (ip), vehicle: Klucel (hydroxypropylcellulose) (HPC)
[16] = dose: 25.0 mg/kg/injection, schedule: Q01DX009 (ip), vehicle: Klucel (hydroxypropylcellulose) (HPC)
[17] = dose: 100.0 mg/kg/injection, schedule: Q04DX003 (ip), vehicle: saline with Tween-80
[18] = dose: 200.0 mg/kg/injection, schedule: Q04DX003 (ip), vehicle: saline with Tween-80
[19] = dose: 100.0 mg/kg/injection, schedule: Q01DX009 (ip), vehicle: saline
[20] = dose: 200.0 mg/kg/injection, schedule: Q01DX009 (ip), vehicle: saline
[21] = dose: 100.0 mg/kg/injection, schedule: Q01DX009 (ip), vehicle: saline with Tween-80
[22] = dose: 200.0 mg/kg/injection, schedule: Q01DX009 (ip), vehicle: saline with Tween-80
[23] = dose: 400.0 mg/kg/injection, schedule: Q01DX009 (ip), vehicle: saline with Tween-80
[24] = dose: 75.0 mg/kg/injection, schedule: Q01DX001 (ip), vehicle: carboxymethylcellulose (CMC)
[25] = dose: 100.0 mg/kg/injection, schedule: Q04DX003 (ip), vehicle: saline
[26] = dose: 200.0 mg/kg/injection, schedule: Q04DX003 (ip), vehicle: saline
[27] = dose: 400.0 mg/kg/injection, schedule: Q04DX003 (ip), vehicle: saline with Tween-80
[28] = dose: 100.0 mg/kg/injection, schedule: Q01DX001 (ip), vehicle: other

Measured: T/C

COc1ccc(CC2c3cc(OC)c(OC)cc3CC[N+]2(C)C)cc1OC (stereo not given)
inactive: dose: 12.5 mg/kg/injection, schedule: Q01DX009 (ip), vehicle: saline sonified 103 % of control | dose: 25.0 mg/kg/injection, schedule: Q01DX009 (ip), vehicle: saline sonified 108 % of control | dose: 50.0 mg/kg/injection, schedule: Q01DX001 (ip), vehicle: Klucel (hydroxypropylcellulose) (HPC) 95 % of control | dose: 50.0 mg/kg/injection, schedule: Q01DX009 (ip), vehicle: saline sonified 102 % of control

NC(=O)NOCC1NC(=O)C(CONC(N)=O)NC1=O (stereo not given)
inactive: [1] 93 % of control | [2] 104 % of control | [3] 102 % of control | [4] 89 % of control | [5] 96 % of control | [6] 95 % of control

Cc1cc(C)c2c(c1)C/C2=N\O
inactive: [7] 106 % of control | [8] 106 % of control | [9] 103 % of control

O=C(O)c1ccc(N=Nc2nc3ccccc3[nH]2)cc1
inactive: [10] 90 % of control | [1] 93 % of control | [3] 90 % of control

NCCCN=C=NCc1ccccc1
inactive: [11] 100 % of control

COc1cc(/C=C\C(=O)O)cc(Cl)c1O
inactive: dose: 50.0 mg/kg/injection, schedule: Q01DX009 (ip), vehicle: saline + alcohol 94 % of control | dose: 100.0 mg/kg/injection, schedule: Q01DX009 (ip), vehicle: saline + alcohol 101 % of control | dose: 200.0 mg/kg/injection, schedule: Q01DX009 (ip), vehicle: saline + alcohol 105 % of control

ICC1CCC(CI)CC1 (stereo not given)
inactive: [12] 102 % of control | [13] 102 % of control | [14] 102 % of control

O=C(/C(=C\c1ccccc1)CN1CCOCC1)c1ccc(Br)cc1
inactive: [15] 96 % of control | [16] 93 % of control | [10] 91 % of control | [17] 87 % of control | [18] 93 % of control

OC1(Cc2nccc3ccccc23)CCN(Cc2ccccc2)CC1
inactive: dose: 100.0 mg/kg/injection, schedule: Q04DX003 (ip), vehicle: carboxymethylcellulose (CMC) 89 % of control | dose: 200.0 mg/kg/injection, schedule: Q04DX003 (ip), vehicle: carboxymethylcellulose (CMC) 98 % of control

NNC(=O)CNc1cccc(F)c1
inactive: [7] 105 % of control | [8] 119 % of control

ClC(Cl)(Cl)c1nc2nccnc2[nH]1
inactive: dose: 25.0 mg/kg/injection, schedule: Q04DX003 (ip), vehicle: saline with Tween-80 98 % of control | dose: 50.0 mg/kg/injection, schedule: Q04DX003 (ip), vehicle: saline with Tween-80 97 % of control | dose: 100.0 mg/kg/injection, schedule: Q04DX003 (ip), vehicle: saline sonified 96 % of control | [17] 110 % of control

COc1cc(Cl)c(CC(=O)c2c[nH]c3ccccc23)cc1OC
inactive: dose: 50.0 mg/kg/injection, schedule: Q01DX001 (ip), vehicle: saline 96 % of control | [11] 93 % of control | [19] 95 % of control | dose: 200.0 mg/kg/injection, schedule: Q01DX001 (ip), vehicle: saline 96 % of control | [20] 98 % of control | dose: 400.0 mg/kg/injection, schedule: Q01DX001 (ip), vehicle: saline 96 % of control | dose: 400.0 mg/kg/injection, schedule: Q01DX009 (ip), vehicle: saline 101 % of control

COC1(OC)C(Cl)=C(Cl)C2C1C1(Cl)C(Cl)=C(Cl)C2(Cl)C1(OC)OC (stereo not given)
inactive: [21] 98 % of control | [22] 98 % of control | [23] 96 % of control

NC1CCC(CC2CCCCCC2)CC1 (stereo not given)
inactive: dose: 6.25 mg/kg/injection, schedule: Q01DX009 (ip), vehicle: Klucel (hydroxypropylcellulose) (HPC) 107 % of control | [15] 100 % of control | [16] 97 % of control and 98 % of control

CCCCN1C(c2ccccc2)=CN(Cc2ccccc2)C=C1c1ccccc1
inactive: [7] 106 % of control | [8] 110 % of control | [9] 103 % of control

OCc1nc2cc3nc(CO)[nH]c3cc2[nH]1
inactive: [24] 98 % of control | dose: 150.0 mg/kg/injection, schedule: Q01DX001 (ip), vehicle: carboxymethylcellulose (CMC) 101 % of control

Cc1cc(N(CCCl)CCCl)ccc1CN1CCCN(Cc2ccc(N(CCCl)CCCl)cc2C)C1c1ccccc1O
inactive: dose: 50.0 mg/kg/injection, schedule: Q01DX001 (ip), vehicle: carboxymethylcellulose (CMC) 106 % of control | [12] 103 % of control | [2] 117 % of control | [13] 103 % of control | [4] 110 % of control | [14] 103 % of control | [6] 122 % of control

Cc1ccc[nH]c1=O
inactive: dose: 50.0 mg/kg/injection, schedule: Q01DX009 (ip), vehicle: saline 95 % of control | [19] 93 % of control | [25] 107 % of control | [20] 91 % of control | [26] 109 % of control

O=C(Nc1ccccc1)OC(C[N+](=O)[O-])C(Cl)(Cl)Cl (stereo not given)
inactive: [24] 98 % of control

CCCCCCCCCCCCCC(=O)CCC
inactive: [21] 106 % of control | [17] 86 % of control | [22] 100 % of control | [18] 110 % of control | [23] 104 % of control | [27] 100 % of control

CC(C)c1ccc(/C=C/C(=O)c2ccc([N+](=O)[O-])cc2)cc1
inactive: dose: 100.0 mg/kg/injection, schedule: Q04DX002 (ip), vehicle: gum acacia 98 % of control | dose: 200.0 mg/kg/injection, schedule: Q04DX002 (ip), vehicle: gum acacia 92 % of control | dose: 400.0 mg/kg/injection, schedule: Q04DX002 (ip), vehicle: gum acacia 95 % of control

CNc1ccccc1C(=O)N/N=C/c1ccccc1Cl
inactive: [7] 108 % of control | [8] 93 % of control | [9] 86 % of control

O=C(NC1CCCCC1)C1C2CC3OC(=O)C1C3C2 (stereo not given)
inactive: [17] 101 % of control | [25] 104 % of control | [18] 97 % of control | [26] 98 % of control | [27] 101 % of control | dose: 400.0 mg/kg/injection, schedule: Q04DX003 (ip), vehicle: saline 104 % of control

Cc1cccc(C2NC(=O)c3ccccc3N2)c1 (stereo not given)
inactive: [2] 91 % of control | [4] 112 % of control | [6] 91 % of control

O=C(Nc1cc(C(F)(F)F)ccc1Cl)N(Cc1ccccc1)c1ccccc1
inactive: [7] 93 % of control and 108 % of control | [8] 98 % of control and 118 % of control | [9] 98 % of control | dose: 800.0 mg/kg/injection, schedule: Q04DX002 (ip), vehicle: Klucel (hydroxypropylcellulose) (HPC) 94 % of control

O=C(N/N=C\c1ccccc1C(=O)O)c1ccco1
inactive: [28] 87 % of control | dose: 200.0 mg/kg/injection, schedule: Q01DX001 (ip), vehicle: other 93 % of control | dose: 400.0 mg/kg/injection, schedule: Q01DX001 (ip), vehicle: other 90 % of control

O=C1NC(O)C(O)N1 (stereo not given)
inactive: [1] 104 % of control | [2] 100 % of control | [3] 96 % of control | [4] 96 % of control | [5] 105 % of control | [6] 100 % of control

CCCCOP(=O)(Nc1ccc([N+](=O)[O-])cc1)OCCCC
inactive: dose: 100.0 mg/kg/injection, schedule: Q04DX002 (ip), vehicle: saline with Tween-80 101 % of control | dose: 200.0 mg/kg/injection, schedule: Q04DX002 (ip), vehicle: saline with Tween-80 94 % of control | dose: 400.0 mg/kg/injection, schedule: Q04DX002 (ip), vehicle: saline with Tween-80 90 % of control

Cc1cn(-c2ccccc2)c(=O)[nH]c1=O
inactive: [28] 112 % of control
